Assay results taken from ChEMBL document CHEMBL1201862, “PubChem BioAssay data set” (2004).
Active and inactive are the calls of the source.

Assays:
[1] = molecular target: Beta-2 adrenergic receptor (Homo sapiens, UniProt P07550); assay: ADRB2 activation measured by internalization – cell-based, FAP fluorogen, flow cytometry, cherry pick 1, dose response (AID 588763); format: functional
[2] = alpha-synuclein stem-loop luciferase translation blockers – H4 neuroglioma cells, luminescence, confirmation (AID 1988); format: functional, cell-based
[3] = DRD fibroblast viability loss – cell-based, non-viral oncogenic, luminescence, dose response (AID 1934); format: functional; conditions: Homo sapiens
BJ [4] = assay: BJ-TERT-LT-ST fibroblast viability loss – cell-based, RAS-independent, luminescence, dose response (AID 1935); format: functional; conditions: Homo sapiens;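 further: BJ fibroblasts immortalized with TERT plus LT and ST oncogenes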
BJ [5] = assay: growth inhibition of engineered Ras-driven BJ cells – cell-based, alamar blue fluorescence, cherrypicked samples, dose response (AID 2631); format: functional; conditions: Homo sapiens;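 further: confirmatory dose-response assay in RAS-dependent BJ fibroblasts engineered with TERT, LT and ST, with cytotoxicity read by fluorescence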
[6] = Luminescence Cell-Based Dose Response HTS to Identify Inhibitors of 5'UTR Stem-Loop Driven Prion Protein mRNA Translation in H4 Neuroglioblastoma Cells. [Related pubchem assays: 1827 (Project Summary), 1813 (Primary HTS)]; format: functional
BJ [7] = assay: BJ-TERT fibroblast viability loss – cell-based, RAS-independent, luminescence, dose response (AID 1933); format: functional; conditions: Homo sapiens
[8] = luciferase reporter signal suppression in cells – H4 neuroglioma cells, luminescence, dose response (AID 1990); format: functional, cell-based
BJ [9] = assay: cells; format: functional, cell-based; conditions: Homo sapiens
HeLa = assay: ATP-based viability loss in HeLa cells – cell-based, CellTiter-Glo luminescence, cherry-pick samples, cytotoxicity control for MITF activator project, dose response (AID 540259); format: functional; conditions: Homo sapiens
[10] = non-specific 3'UTR reporter inhibition in Clone20-Shn3RL – cell-based, Renilla luciferase, cherry-picked, counter-screen for Shn3 inhibitor project, dose response (AID 624133); format: functional
INS1 = assay: INS-1E survival protection against cytokine death – cell-based, luminescence, retest, dose response (AID 449756); format: functional; conditions: Rattus norvegicus;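 further: cell death triggered by IL-1 beta plus TNF-alpha plus IFN-gamma mixture; protective hits raise ATP signal compared with cytokine alone wells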
HEK293 [11] = assay: EBV LMP1 TES2 canonical NF-kB signalling blockers – cell-based, HEK293, luciferase, cherry-pick, dose response (AID 588343); format: functional; conditions: Homo sapiens
[12] = reduction of Shn3 3'UTR-driven luciferase in osteoblasts – cell-based, Clone20 osteoblasts, firefly luciferase, cherry-picked, dose response (AID 624132); format: functional;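 further: firefly luciferase luminescence from reporter carrying the Shn3 3'UTR in osteoblasts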
[13] = loss of viability in HepG2 cells – cell-based, CellTiter-Glo, cherry-picked, cytotoxicity control for Shn3 inhibitor project, dose response (AID 624134); format: functional
[14] = Trypanosoma cruzi growth suppression in host cells – NIH3T3 host cells, beta-gal luminescence, confirmation (AID 2044); format: functional, cell-based;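 further: intracellular parasites grown in NIH/3T3 mouse fibroblasts as host cells; luminescent beta-galactosidase reporter signal from transgenic T. cruzi replicating inside host cells; inhibitors lower the luminescence signal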
Insulin-degrading enzyme [15] = molecular target: T1, Insulin-degrading enzyme (Homo sapiens, UniProt P14735); assay: recombinant IDE activation, cell-free – biochemical, fluorescence polarization, counter-screen for IDE activator project, dose response (AID 588681)
T1 sequence (P14735 whole entry): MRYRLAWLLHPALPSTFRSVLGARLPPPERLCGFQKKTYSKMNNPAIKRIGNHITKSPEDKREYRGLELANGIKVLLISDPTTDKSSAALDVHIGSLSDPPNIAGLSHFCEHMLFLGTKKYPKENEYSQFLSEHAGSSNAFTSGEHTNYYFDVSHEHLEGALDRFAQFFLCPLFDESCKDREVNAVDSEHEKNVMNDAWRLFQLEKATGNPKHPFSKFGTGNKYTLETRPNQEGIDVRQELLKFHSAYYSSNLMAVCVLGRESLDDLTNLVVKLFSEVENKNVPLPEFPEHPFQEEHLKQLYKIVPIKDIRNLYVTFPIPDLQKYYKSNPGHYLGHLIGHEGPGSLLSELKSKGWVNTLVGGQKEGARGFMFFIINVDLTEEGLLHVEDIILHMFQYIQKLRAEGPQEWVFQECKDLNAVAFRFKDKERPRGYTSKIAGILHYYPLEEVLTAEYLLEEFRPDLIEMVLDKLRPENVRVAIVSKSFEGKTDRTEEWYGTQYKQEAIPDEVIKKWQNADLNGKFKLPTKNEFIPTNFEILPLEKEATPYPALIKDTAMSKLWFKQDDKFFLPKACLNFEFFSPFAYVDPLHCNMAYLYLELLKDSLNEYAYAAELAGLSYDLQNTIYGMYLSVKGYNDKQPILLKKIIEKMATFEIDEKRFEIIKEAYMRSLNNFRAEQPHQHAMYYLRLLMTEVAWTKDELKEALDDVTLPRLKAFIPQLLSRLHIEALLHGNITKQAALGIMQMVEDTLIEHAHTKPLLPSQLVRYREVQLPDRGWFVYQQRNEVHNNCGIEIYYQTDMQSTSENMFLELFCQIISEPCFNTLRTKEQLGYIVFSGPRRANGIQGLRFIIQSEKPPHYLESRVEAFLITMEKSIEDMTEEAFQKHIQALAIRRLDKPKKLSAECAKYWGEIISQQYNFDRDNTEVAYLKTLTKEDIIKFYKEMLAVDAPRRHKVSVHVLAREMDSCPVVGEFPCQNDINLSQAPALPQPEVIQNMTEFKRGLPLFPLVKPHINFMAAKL

Streptococcus = assay: GAS UMAA2166 growth inhibition – luminescence, BacTiterGlo, counter-screen for streptokinase expression inhibitor project, dose response (AID 1915); format: functional, organism-based;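 further: potency for reduction of bacterial viability or growth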
[16] = viability of PTEN-deleted HCT116 cells – cell-based, HCT116 PTEN knockout, dose response (AID 1047); format: functional;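 further: HCT116 colon tumor cells with PTEN knocked out; cells exposed to compound for 60 hours before readout; potency for loss of cell viability measured by luminescence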
Insulin-degrading enzyme [17] = molecular target: T1, Insulin-degrading enzyme; assay: cellular IDE activation of Abeta substrate cleavage – fluorescence polarization, HEK cells, dose response (AID 588439); format: functional, cell-based
[18] = test system: Streptococcus sp. 'group A'; assay: Streptococcus pyogenes SK(-)GAS viability under kanamycin – luminescence, BacTiterGlo, confirmation, counter-screen for streptokinase expression inhibitor project, dose response (AID 1900); format: functional, organism-based
HEK293 [19] = assay: optical interference in Abeta FP readout, dose response, artefact control for IDE activator project, biochemical, fluorescence polarization (AID 588442); format: functional, cell-based; conditions: Homo sapiens
[20] = NIH3T3 cell viability loss – ATP luminescence, mouse fibroblasts, counter-screen, dose response (AID 2010); format: functional, cell-based;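 further: cells exposed to compound for about 90 hours before reading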
Streptokinase A = molecular target: T2, Streptokinase A (Streptococcus pyogenes serotype M1, UniProt P10520); assay: viability-normalized secreted streptokinase activity reduction – plasminogen activation absorbance, OD405, dose response (AID 1914); format: functional, Streptococcus pyogenes M1 GAS;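 further: secreted streptokinase activity via plasminogen activation per viability signal from cell pellet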
T2 sequence (P10520 whole entry): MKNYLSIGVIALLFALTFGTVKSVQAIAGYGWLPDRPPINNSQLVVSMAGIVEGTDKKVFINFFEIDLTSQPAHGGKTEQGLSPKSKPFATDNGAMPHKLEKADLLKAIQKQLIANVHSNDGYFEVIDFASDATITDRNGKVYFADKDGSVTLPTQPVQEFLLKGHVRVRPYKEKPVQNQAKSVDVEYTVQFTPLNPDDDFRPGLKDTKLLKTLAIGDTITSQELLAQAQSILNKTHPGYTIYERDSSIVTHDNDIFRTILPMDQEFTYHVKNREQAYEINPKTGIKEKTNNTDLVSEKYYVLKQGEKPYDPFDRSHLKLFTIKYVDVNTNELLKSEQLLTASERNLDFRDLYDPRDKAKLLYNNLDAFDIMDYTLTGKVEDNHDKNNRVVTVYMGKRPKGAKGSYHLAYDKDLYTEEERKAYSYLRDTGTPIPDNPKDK

[21] = viability of HCT116 lacking mutant beta-catenin – cell-based, human colon tumor, dose response (AID 1045); format: functional;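 further: HCT116 colon tumor cells with beta catenin knocked out; cells exposed to compound for 60 hours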
HEK293 [22] = assay: membrane integrity loss in HEK cells – cell-based, fluorescence, cytotoxicity control for IDE activator project, dose response (AID 588440); format: functional; conditions: Homo sapiens;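 further: cytotoxicity by LDH release measuring loss of membrane integrity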
cells = format: functional

Beta-2 adrenergic receptor, sequence (P07550 whole entry): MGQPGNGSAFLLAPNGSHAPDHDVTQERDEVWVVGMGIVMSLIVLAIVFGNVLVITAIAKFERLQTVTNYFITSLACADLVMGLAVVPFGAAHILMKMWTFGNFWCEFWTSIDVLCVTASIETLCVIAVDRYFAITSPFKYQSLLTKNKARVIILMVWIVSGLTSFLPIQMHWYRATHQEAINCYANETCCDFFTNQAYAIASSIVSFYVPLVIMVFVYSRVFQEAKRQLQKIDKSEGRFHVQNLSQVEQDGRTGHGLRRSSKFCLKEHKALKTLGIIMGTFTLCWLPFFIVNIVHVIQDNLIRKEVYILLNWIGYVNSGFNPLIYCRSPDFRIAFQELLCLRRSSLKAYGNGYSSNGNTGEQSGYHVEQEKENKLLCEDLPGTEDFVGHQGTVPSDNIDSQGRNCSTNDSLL

With `Cc1cc(C)c2c(N)c(-c3nnc(SCc4ccc(Cl)cc4)n3C)sc2n1` the EC50 [1] was 0.252 µM (active).
In the case of `Cc1cc2nc(/C=C/c3cccnc3)[nH]c2cc1C`, the EC50 [2] is reported as 0.154 µM (active), the EC50 [3] is reported as 1.42 µM (inconclusive) and the EC50 (BJ [4]) is reported as 15.1 µM (inconclusive). For the same compound, the EC50 (BJ [5]) was < 104 nM (active), the EC50 [6] was 0.318 µM (active) and the EC50 (BJ [7]) was 553 nM (inconclusive). For the same compound, the EC50 [8] was 0.336 µM (inconclusive) and the EC50 (BJ [9]) was 1.89 µM (inconclusive).
With `Cc1ccc(Nc2ncnc3ccccc23)cc1` the AC50 (HeLa) was 154 µM (active).
In the case of `COc1ccc(Cn2c(SCc3cc(C)ccc3C)nc3cc(OC)c(OC)cc3c2=N)cc1`, the EC50 [2] is reported as 10.8 µM (active), the AC50 [10] is reported as 9.31 µM (active) and the AC50 (INS1) is reported as 3.48 µM (active). The AC50 (HEK293 [11]) was 7.9 µM (active), the AC50 [12] was 7.91 µM (active) and the AC50 [13] was 11.2 µM (active). The EC50 [1] was 83.4 µM (inactive), the EC50 [14] was 1.19 µM (active) and the EC50 (Insulin-degrading enzyme [15]) was > 54.7 µM (inactive). For the same compound, the EC50 (Streptococcus) was 8.37 µM (active), the EC50 [16] was 2.47 µM (active) and the EC50 (Insulin-degrading enzyme [17]) was 6.95 µM (active). For the same compound, the EC50 [6] was 30.7 µM (active), the EC50 [18] was 5.16 µM (active) and the EC50 (HEK293 [19]) was > 56 µM (inactive). For the same compound, the EC50 [8] was 24.1 µM (active), the EC50 [20] was 9.83 µM (active) and the EC50 (Streptokinase A) was 6.67 µM (active). The EC50 [21] was 1.88 µM (active) and the IC50 (HEK293 [22]) was 10.7 µM (inactive).
For `COc1cccc(OCc2nnc(-c3cccs3)o2)c1`, the EC50 [1] was 10.7 µM (inactive) and the IC50 (cells) was 5.57 µM (active).
